{"source": "paper PMC4823954", "about": "“From fighting depression to conquering tumors: a novel tricyclic thiazepine compound as a tubulin polymerization inhibitor” (Cell Death & Disease, 2016)", "key": {"[1]": {"test": "parallel artificial membrane permeability assay (PAMPA)", "assay_type": "in vitro ADME", "text": "As in vivo investigations are generally time consuming and expensive, it is advantageous to eliminate those compounds that are not suitable for animal experiments. One of the necessary steps is to screen the initial hits using assays testing their possible behaviors in vivo. To evaluate the drug-like properties of TBPT, a panel of in vitro assays was preformed (Table 1). The parallel artificial membrane permeability assay (PAMPA) was used to evaluate the cell permeability of the compounds. Compounds with a Pe >[…] are classified as highly permeable. […] The Caco-2 assay was used to predict the oral absorption values of the compounds in vivo. Compounds with a Caco-2 efflux ratio >2 may be subject to active efflux and should not be developed further. […] The half-life (T1/2) in human liver microsomes is used to predict the metabolism properties of compounds in vivo. […] A very long T1/2 (>24 h) increases the risk of cumulative toxicity and is not desirable. […] T1/2 in plasma indicates the stability of the drug in human blood; the high T1/2 values of these compounds indicated better stability in vivo. Plasma protein binding influences the distribution of drugs into body tissues, and compounds with high plasma protein binding (>99%) are limited in terms of the amount of free compound that are available to act on the targeted tissue. […]"}, "ALK": {"target": "T1, ALK (Homo sapiens, UniProt Q9UM73)", "T1 construct": "purchased DiscoveRx KINOMEscan", "T1 sequence (Q9UM73 19-1620)": "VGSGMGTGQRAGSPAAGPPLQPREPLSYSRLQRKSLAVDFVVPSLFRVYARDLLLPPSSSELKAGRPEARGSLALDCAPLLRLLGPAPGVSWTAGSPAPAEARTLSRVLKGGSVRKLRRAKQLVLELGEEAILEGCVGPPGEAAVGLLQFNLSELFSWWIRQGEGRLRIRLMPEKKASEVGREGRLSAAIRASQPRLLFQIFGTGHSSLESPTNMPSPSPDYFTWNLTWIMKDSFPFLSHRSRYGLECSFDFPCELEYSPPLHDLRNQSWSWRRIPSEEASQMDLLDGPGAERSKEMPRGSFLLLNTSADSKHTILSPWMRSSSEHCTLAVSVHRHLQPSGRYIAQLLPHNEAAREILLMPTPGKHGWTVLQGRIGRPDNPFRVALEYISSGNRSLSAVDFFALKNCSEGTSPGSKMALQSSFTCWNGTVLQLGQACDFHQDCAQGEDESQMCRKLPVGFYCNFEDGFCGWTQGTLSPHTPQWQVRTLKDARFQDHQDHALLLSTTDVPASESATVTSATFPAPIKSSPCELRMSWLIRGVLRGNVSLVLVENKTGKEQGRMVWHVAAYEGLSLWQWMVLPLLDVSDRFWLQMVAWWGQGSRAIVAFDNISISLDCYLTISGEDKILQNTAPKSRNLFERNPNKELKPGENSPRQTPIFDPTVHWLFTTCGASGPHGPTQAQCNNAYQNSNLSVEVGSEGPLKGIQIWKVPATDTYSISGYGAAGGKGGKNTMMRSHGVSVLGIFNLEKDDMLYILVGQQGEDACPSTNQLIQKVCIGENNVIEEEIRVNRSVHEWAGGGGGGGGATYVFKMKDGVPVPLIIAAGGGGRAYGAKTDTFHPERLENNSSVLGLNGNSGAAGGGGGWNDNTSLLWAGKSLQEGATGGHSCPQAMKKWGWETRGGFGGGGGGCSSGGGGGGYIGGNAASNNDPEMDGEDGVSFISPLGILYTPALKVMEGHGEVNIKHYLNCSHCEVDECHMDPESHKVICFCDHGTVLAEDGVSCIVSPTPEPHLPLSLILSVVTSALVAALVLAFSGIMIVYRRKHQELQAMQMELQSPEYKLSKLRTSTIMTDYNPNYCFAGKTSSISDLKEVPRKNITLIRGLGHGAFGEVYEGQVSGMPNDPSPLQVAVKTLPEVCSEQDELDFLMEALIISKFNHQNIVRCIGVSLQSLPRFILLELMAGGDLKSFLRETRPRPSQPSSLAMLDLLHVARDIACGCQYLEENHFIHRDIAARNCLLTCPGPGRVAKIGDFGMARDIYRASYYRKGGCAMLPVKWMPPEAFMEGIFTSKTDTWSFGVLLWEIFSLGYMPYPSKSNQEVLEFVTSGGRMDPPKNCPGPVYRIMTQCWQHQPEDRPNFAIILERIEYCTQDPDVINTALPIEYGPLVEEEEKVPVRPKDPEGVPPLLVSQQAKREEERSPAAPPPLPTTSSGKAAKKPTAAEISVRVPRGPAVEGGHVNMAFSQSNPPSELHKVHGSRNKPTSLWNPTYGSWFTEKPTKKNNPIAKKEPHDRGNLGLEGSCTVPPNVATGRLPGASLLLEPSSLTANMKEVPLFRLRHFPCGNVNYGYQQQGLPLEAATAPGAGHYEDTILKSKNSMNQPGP", "test": "KINOMEscan", "assay_type": "binding", "conditions": "read-out: % Ctrl", "description": "(§1) The binding assay for 442 non-mutant kinases was performed using KINOMEscan (DiscoveRx Corporation, Fremont, CA, USA) as reported previously.[58], [59] TBPT was screened at concentrations of 5 and 10 μM to identify the affected kinases. KINOMEscan is based on a competition reaction that quantitatively measures the ability of a test compound to compete with an active site-directed ligand for binding to the kinase active site. […] After the assay plates were incubated with shaking for 1 h, the liganded beads were washed with washing buffer (1 × PBS and 0.05% Tween 20). Then, the beads were re-suspended in elution buffer (1 × PBS, 0.05% Tween 20, and 0.5 μM ligand) and incubated with shaking for 30 min. The kinase concentration in the eluates was measured via qPCR. The results are represented as ‘%Ctrl', which was calculated using the following formula: (test compound signal–positive control signal)/(DMSO signal–positive control signal) × 100%. A lower % Ctrl indicates stronger binding to the kinase active site."}, "STK35": {"target": "T2, STK35 (Homo sapiens, UniProt Q8TDR2)", "T2 construct": "purchased DiscoveRx KINOMEscan", "test": "KINOMEscan", "assay_type": "binding", "conditions": "read-out: % Ctrl", "description": "as §1"}, "MAP3K1": {"target": "T3, MAP3K1 (Homo sapiens, UniProt Q13233)", "T3 construct": "purchased DiscoveRx KINOMEscan", "test": "KINOMEscan", "assay_type": "binding", "conditions": "read-out: % Ctrl", "description": "as §1"}, "DMPK2": {"target": "T4, DMPK2 (Homo sapiens, UniProt Q6DT37)", "T4 construct": "purchased DiscoveRx KINOMEscan", "test": "KINOMEscan", "assay_type": "binding", "conditions": "read-out: % Ctrl", "description": "as §1"}, "MRCKB": {"target": "T5, MRCKB (Homo sapiens, UniProt Q9Y5S2)", "T5 construct": "purchased DiscoveRx KINOMEscan", "test": "KINOMEscan", "assay_type": "binding", "conditions": "read-out: % Ctrl", "description": "as §1"}, "ACVR2B": {"target": "T6, ACVR2B (Homo sapiens, UniProt Q13705)", "T6 construct": "purchased DiscoveRx KINOMEscan", "T6 sequence (Q13705 19-512)": "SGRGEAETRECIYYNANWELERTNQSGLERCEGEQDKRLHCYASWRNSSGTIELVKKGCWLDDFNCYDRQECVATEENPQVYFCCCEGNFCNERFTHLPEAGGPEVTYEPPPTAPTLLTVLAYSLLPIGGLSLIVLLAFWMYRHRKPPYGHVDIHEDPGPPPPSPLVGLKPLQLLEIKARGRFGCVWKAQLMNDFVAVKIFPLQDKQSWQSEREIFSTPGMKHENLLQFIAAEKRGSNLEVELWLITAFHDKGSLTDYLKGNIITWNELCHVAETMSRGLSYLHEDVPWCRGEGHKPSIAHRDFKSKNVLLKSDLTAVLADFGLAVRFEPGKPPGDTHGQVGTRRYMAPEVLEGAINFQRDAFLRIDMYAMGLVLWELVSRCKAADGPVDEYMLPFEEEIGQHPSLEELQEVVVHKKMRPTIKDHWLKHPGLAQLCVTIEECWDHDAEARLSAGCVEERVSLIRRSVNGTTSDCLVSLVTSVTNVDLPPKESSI", "test": "KINOMEscan", "assay_type": "binding", "conditions": "read-out: % Ctrl", "description": "as §1"}, "TAOK2": {"target": "T7, TAOK2 (Homo sapiens, UniProt Q9UL54)", "T7 construct": "purchased DiscoveRx KINOMEscan", "test": "KINOMEscan", "assay_type": "binding", "conditions": "read-out: % Ctrl", "description": "as §1"}, "GRK1": {"target": "T8, GRK1 (Homo sapiens, UniProt Q15835)", "T8 construct": "purchased DiscoveRx KINOMEscan", "test": "KINOMEscan", "assay_type": "binding", "conditions": "read-out: % Ctrl", "description": "as §1"}, "SNRK": {"target": "T9, SNRK (Homo sapiens, UniProt Q9NRH2)", "T9 construct": "purchased DiscoveRx KINOMEscan", "test": "KINOMEscan", "assay_type": "binding", "conditions": "read-out: % Ctrl", "description": "as §1"}, "BRSK2": {"target": "T10, BRSK2 (Homo sapiens, UniProt Q8IWQ3)", "T10 construct": "purchased DiscoveRx KINOMEscan", "test": "KINOMEscan", "assay_type": "binding", "conditions": "read-out: % Ctrl", "description": "as §1"}, "KIT(D816H)": {"target": "T11, KIT(D816H) (Homo sapiens, UniProt P10721, D816H)", "T11 construct": "purchased DiscoveRx KINOMEscan", "T11 sequence (P10721 26-976 D816H)": "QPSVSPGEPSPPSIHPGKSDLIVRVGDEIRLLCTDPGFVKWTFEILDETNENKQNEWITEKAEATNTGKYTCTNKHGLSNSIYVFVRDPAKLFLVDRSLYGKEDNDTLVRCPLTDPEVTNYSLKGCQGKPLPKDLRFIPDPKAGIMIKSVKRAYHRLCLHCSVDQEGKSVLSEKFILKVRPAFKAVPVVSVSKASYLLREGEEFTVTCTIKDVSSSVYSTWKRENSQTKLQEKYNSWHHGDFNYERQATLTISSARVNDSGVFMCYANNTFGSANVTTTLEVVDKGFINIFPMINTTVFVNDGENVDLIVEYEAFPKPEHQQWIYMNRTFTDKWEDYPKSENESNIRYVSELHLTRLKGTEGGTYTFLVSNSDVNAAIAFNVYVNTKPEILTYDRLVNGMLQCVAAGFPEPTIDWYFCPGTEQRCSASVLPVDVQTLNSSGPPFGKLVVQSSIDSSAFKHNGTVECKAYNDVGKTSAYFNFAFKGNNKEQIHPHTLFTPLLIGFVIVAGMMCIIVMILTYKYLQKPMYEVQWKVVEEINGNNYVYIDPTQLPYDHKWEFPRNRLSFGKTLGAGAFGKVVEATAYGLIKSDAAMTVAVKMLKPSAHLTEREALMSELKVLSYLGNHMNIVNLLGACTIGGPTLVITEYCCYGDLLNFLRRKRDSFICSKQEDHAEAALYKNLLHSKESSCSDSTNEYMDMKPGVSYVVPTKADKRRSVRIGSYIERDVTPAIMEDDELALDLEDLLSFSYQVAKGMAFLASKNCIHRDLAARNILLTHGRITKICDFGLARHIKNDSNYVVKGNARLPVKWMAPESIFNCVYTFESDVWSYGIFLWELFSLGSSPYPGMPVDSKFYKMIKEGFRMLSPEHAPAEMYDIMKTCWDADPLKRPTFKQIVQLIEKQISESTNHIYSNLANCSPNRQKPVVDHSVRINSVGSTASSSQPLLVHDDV", "test": "KINOMEscan", "assay_type": "binding", "conditions": "read-out: % Ctrl", "description": "as §1"}, "ACVR1": {"target": "T12, ACVR1 (Homo sapiens, UniProt Q04771)", "T12 construct": "purchased DiscoveRx KINOMEscan", "T12 sequence (Q04771 21-509)": "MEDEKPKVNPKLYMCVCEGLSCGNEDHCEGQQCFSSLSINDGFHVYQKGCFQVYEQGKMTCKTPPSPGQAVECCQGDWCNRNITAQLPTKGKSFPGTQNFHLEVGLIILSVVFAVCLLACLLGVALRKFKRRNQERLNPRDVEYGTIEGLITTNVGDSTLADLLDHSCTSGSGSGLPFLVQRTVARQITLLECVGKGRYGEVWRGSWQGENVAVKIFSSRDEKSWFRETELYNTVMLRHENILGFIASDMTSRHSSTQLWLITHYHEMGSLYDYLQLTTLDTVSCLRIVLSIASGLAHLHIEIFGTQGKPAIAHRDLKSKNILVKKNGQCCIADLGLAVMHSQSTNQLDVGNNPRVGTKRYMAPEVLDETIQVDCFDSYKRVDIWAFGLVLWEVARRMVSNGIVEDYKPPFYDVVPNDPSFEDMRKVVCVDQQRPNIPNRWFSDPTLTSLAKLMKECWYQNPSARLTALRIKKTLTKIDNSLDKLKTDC", "test": "KINOMEscan", "assay_type": "binding", "conditions": "read-out: % Ctrl", "description": "as §1"}, "KIT(D816V)": {"target": "T13, KIT(D816V) (Homo sapiens, UniProt P10721, D816V)", "T13 construct": "purchased DiscoveRx KINOMEscan", "T13 sequence (P10721 26-976 D816V)": "as the sequence (P10721 26-976 D816H) above, with H791V counted along it", "test": "KINOMEscan", "assay_type": "binding", "conditions": "read-out: % Ctrl", "description": "as §1"}, "ERBB2": {"target": "T14, ERBB2 (Homo sapiens, UniProt P04626)", "T14 construct": "purchased DiscoveRx KINOMEscan", "T14 sequence (P04626 23-1255)": "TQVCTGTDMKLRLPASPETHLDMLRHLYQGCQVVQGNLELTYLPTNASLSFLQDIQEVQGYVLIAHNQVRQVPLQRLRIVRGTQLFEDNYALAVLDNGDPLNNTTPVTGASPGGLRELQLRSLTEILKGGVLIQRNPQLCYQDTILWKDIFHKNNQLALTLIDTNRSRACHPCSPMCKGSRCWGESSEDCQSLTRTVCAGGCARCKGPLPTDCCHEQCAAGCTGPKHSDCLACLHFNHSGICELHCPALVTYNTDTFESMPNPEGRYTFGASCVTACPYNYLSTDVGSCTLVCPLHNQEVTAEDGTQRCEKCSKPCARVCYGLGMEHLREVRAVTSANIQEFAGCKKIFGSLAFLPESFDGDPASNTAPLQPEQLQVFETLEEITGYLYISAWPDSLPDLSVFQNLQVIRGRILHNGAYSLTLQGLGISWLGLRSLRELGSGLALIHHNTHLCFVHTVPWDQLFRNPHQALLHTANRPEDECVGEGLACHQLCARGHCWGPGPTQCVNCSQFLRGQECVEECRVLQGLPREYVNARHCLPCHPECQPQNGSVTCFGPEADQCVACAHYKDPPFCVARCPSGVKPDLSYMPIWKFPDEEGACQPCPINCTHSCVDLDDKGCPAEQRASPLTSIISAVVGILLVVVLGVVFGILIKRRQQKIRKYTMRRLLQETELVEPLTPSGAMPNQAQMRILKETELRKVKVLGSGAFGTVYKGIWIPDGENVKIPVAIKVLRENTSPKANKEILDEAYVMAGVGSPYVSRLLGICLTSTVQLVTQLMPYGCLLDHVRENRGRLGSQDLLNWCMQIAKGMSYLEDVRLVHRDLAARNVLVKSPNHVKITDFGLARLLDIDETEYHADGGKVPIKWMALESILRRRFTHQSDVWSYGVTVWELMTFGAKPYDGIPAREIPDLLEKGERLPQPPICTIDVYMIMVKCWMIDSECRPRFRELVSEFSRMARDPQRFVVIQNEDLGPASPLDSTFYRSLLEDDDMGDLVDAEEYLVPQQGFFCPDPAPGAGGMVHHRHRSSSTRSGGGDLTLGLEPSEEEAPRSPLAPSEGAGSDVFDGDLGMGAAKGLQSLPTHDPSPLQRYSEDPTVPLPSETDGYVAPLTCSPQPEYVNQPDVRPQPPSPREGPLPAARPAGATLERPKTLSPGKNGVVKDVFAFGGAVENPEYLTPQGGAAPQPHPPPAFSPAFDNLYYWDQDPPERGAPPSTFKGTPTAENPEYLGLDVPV", "test": "KINOMEscan", "assay_type": "binding", "conditions": "read-out: % Ctrl", "description": "as §1"}, "MST3": {"target": "T15, MST3 (Homo sapiens, UniProt Q9Y6E0)", "T15 construct": "purchased DiscoveRx KINOMEscan", "test": "KINOMEscan", "assay_type": "binding", "conditions": "read-out: % Ctrl", "description": "as §1"}, "CSNK1E": {"target": "T16, CSNK1E (Homo sapiens, UniProt P49674)", "T16 construct": "purchased DiscoveRx KINOMEscan", "test": "KINOMEscan", "assay_type": "binding", "conditions": "read-out: % Ctrl", "description": "as §1"}, "HCK": {"target": "T17, HCK (Homo sapiens, UniProt P08631)", "T17 construct": "purchased DiscoveRx KINOMEscan", "test": "KINOMEscan", "assay_type": "binding", "conditions": "read-out: % Ctrl", "description": "as §1"}, "LIMK2": {"target": "T18, LIMK2 (Homo sapiens, UniProt P53671)", "T18 construct": "purchased DiscoveRx KINOMEscan", "test": "KINOMEscan", "assay_type": "binding", "conditions": "read-out: % Ctrl", "description": "as §1"}, "CDC2L2": {"target": "T19, CDC2L2 (Homo sapiens, UniProt Q9UQ88)", "T19 construct": "purchased DiscoveRx KINOMEscan", "test": "KINOMEscan", "assay_type": "binding", "conditions": "read-out: % Ctrl", "description": "as §1"}, "PDGFRB": {"target": "T20, PDGFRB (Homo sapiens, UniProt P09619)", "T20 construct": "purchased DiscoveRx KINOMEscan", "test": "KINOMEscan", "assay_type": "binding", "conditions": "read-out: % Ctrl", "description": "as §1"}, "H460TaxR xenograft": {"tested_on": "H460TaxR xenograft", "test": "NSCLC xenograft tumor growth inhibition", "assay_type": "in vivo", "conditions": "H460TaxR xenografted mice; TBPT 60 mg/kg i.v., five injections every other day", "description": "(§2) (a) The tumor volume was measured every other day. […] (b) Blood biochemical and hematological analyses."}, "H460 xenograft": {"tested_on": "H460 xenograft", "test": "NSCLC xenograft tumor growth inhibition", "assay_type": "in vivo", "conditions": "H460 xenografted mice; TBPT 60 mg/kg i.v., five injections every other day", "description": "as §2"}, "mice hippocampus cells": {"tested_on": "mice hippocampus cells", "test": "Cell cycle and apoptosis analysis", "conditions": "2 μM", "protocol": "Cell cycle and apoptosis analyses were performed on a Guava EasyCyte Flow Cytometry System (Millipore, Billerica, MA, USA). Cells were seeded in 6-cm culture plates and treated with 2 μM TBPT or an equal volume of DMSO on the next day for the indicated times. To analyze the intracellular DNA content, cells were harvested, washed twice in PBS and fixed in 70% ethanol at −20 °C overnight. After the cells were washed in PBS, they were stained with Guava cell cycle reagent (Millipore) and analyzed via flow cytometry. For cell apoptosis analysis, the cells were harvested, washed in PBS, stained with PI/Annexin V-FITC reagent (Life Technologies) and analyzed by flow cytometry.\nThe cell cycle (a) and apoptosis (b) analysis of mice hippocampus cells. The new-born mice hippocampus cells were derived and cultured as previously report (F Lu et al. Cell Death and Disease, 2012). Cells were treated with DMSO or TBPT (2 μM) for the indicated times. After the cells were stained, they were analyzed for cell cycle and apoptosis using flow cytometry."}}, "note": "Several values for one entry are separate records, joined by “and”; a condition that tells them apart may be missing. Equal values may be shown once.", "data": [{"smiles": "Cc1ccc(C2=Nc3cccnc3S(=O)(=O)c3ccccc32)cc1", "note": "[TBPT, 6-(p-tolyl)benzo[f] pyrido[2,3-b][1,4] thiazepine 11,11-dioxide]", "values": [{"measurement": "PAMPA Pe", "setting": "[1]", "value": "1081.1±30.2 10^−6cm/s"}, {"measurement": "remaining binding at 5 µM", "setting": "ALK; 5 μM", "value": 100, "unit": "%"}, {"measurement": "remaining binding at 10 µM", "setting": "ALK; 10 μM", "value": 71, "unit": "%"}, {"measurement": "remaining binding at 5 µM", "setting": "STK35; 5 μM", "value": 97, "unit": "%"}, {"measurement": "remaining binding at 10 µM", "setting": "STK35; 10 μM", "value": 100, "unit": "%"}, {"measurement": "remaining binding at 5 µM", "setting": "MAP3K1; 5 μM", "value": 100, "unit": "%"}, {"measurement": "remaining binding at 10 µM", "setting": "MAP3K1; 10 μM", "value": 100, "unit": "%"}, {"measurement": "remaining binding at 5 µM", "setting": "DMPK2; 5 μM", "value": 100, "unit": "%"}, {"measurement": "remaining binding at 10 µM", "setting": "DMPK2; 10 μM", "value": 83, "unit": "%"}, {"measurement": "remaining binding at 5 µM", "setting": "MRCKB; 5 μM", "value": 89, "unit": "%"}, {"measurement": "remaining binding at 10 µM", "setting": "MRCKB; 10 μM", "value": 92, "unit": "%"}, {"measurement": "remaining binding at 5 µM", "setting": "ACVR2B; 5 μM", "value": 87, "unit": "%"}, {"measurement": "remaining binding at 10 µM", "setting": "ACVR2B; 10 μM", "value": 82, "unit": "%"}, {"measurement": "remaining binding at 5 µM", "setting": "TAOK2; 5 μM", "value": 90, "unit": "%"}, {"measurement": "remaining binding at 10 µM", "setting": "TAOK2; 10 μM", "value": 67, "unit": "%"}, {"measurement": "remaining binding at 5 µM", "setting": "GRK1; 5 μM", "value": 100, "unit": "%"}, {"measurement": "remaining binding at 10 µM", "setting": "GRK1; 10 μM", "value": 100, "unit": "%"}, {"measurement": "remaining binding at 5 µM", "setting": "SNRK; 5 μM", "value": 100, "unit": "%"}, {"measurement": "remaining binding at 10 µM", "setting": "SNRK; 10 μM", "value": 100, "unit": "%"}, {"measurement": "remaining binding at 5 µM", "setting": "BRSK2; 5 μM", "value": 100, "unit": "%"}, {"measurement": "remaining binding at 10 µM", "setting": "BRSK2; 10 μM", "value": 100, "unit": "%"}, {"measurement": "remaining binding at 5 µM", "setting": "KIT(D816H); 5 μM", "value": 71, "unit": "%"}, {"measurement": "remaining binding at 10 µM", "setting": "KIT(D816H); 10 μM", "value": 100, "unit": "%"}, {"measurement": "remaining binding at 5 µM", "setting": "ACVR1; 5 μM", "value": 100, "unit": "%"}, {"measurement": "remaining binding at 10 µM", "setting": "ACVR1; 10 μM", "value": 100, "unit": "%"}, {"measurement": "remaining binding at 5 µM", "setting": "KIT(D816V); 5 μM", "value": 62, "unit": "%"}, {"measurement": "remaining binding at 10 µM", "setting": "KIT(D816V); 10 μM", "value": 99, "unit": "%"}, {"measurement": "remaining binding at 5 µM", "setting": "ERBB2; 5 μM", "value": 100, "unit": "%"}, {"measurement": "remaining binding at 10 µM", "setting": "ERBB2; 10 μM", "value": 100, "unit": "%"}, {"measurement": "remaining binding at 5 µM", "setting": "MST3; 5 μM", "value": 95, "unit": "%"}, {"measurement": "remaining binding at 10 µM", "setting": "MST3; 10 μM", "value": 96, "unit": "%"}, {"measurement": "remaining binding at 5 µM", "setting": "CSNK1E; 5 μM", "value": 100, "unit": "%"}, {"measurement": "remaining binding at 10 µM", "setting": "CSNK1E; 10 μM", "value": 96, "unit": "%"}, {"measurement": "remaining binding at 5 µM", "setting": "HCK; 5 μM", "value": 93, "unit": "%"}, {"measurement": "remaining binding at 10 µM", "setting": "HCK; 10 μM", "value": 100, "unit": "%"}, {"measurement": "remaining binding at 5 µM", "setting": "LIMK2; 5 μM", "value": 91, "unit": "%"}, {"measurement": "remaining binding at 10 µM", "setting": "LIMK2; 10 μM", "value": 100, "unit": "%"}, {"measurement": "remaining binding at 5 µM", "setting": "CDC2L2; 5 μM", "value": 100, "unit": "%"}, {"measurement": "remaining binding at 10 µM", "setting": "CDC2L2; 10 μM", "value": 100, "unit": "%"}, {"measurement": "remaining binding at 5 µM", "setting": "PDGFRB; 5 μM", "value": 68, "unit": "%"}, {"measurement": "remaining binding at 10 µM", "setting": "PDGFRB; 10 μM", "value": 100, "unit": "%"}, {"measurement": "tumor growth inhibition, TGI", "setting": "H460TaxR xenograft", "value": "66.7% and > 60%"}, {"measurement": "tumor growth inhibition, TGI", "setting": "H460 xenograft", "value": "62.9% and > 60%"}, {"measurement": "cell cycle arrest or apoptosis", "setting": "mice hippocampus cells", "value": "very little cell cycle arrest or apoptosis"}]}]}
